Results: patent US20260103581A1, “PROCESS FOR GRANULATING AZO COMPOUNDS AND GRANULES OBTAINED” (ARKEMA FRANCE, priority 2022, published 2026)
Values after ≈ are worked out from the molar mass of the structure shown. One block for each molecule: values may come before it.

Legend:
[1] = physchem; conditions: 20 °C, organic solvent or mixture, thermodynamic from solid
Protocol: (§1) The bottle is shaken for a period of between 1 h and 10 h, for example 6 h. After decantation, said binder is analysed to determine its content of compound of formula (I): this content corresponds to the solubility of the azo compound in the organic binder in g/L. The analysis is carried out by gas chromatography.
(§2) The bottle is shaken for approximately 6 h. After decantation, the organic binder is analysed to determine its AZDN concentration. The analysis is carried out by gas chromatography with an injector temperature set at 220° C. (under these conditions, AZDN is essentially transformed into tetramethylsuccinonitrile in the injector).

[2] = Measurement of the solubility of AZDN in the organic binder; conditions: 20 °C, organic solvent or mixture, thermodynamic from solid
Protocol: as §1, §2

[3] = Granule dissolution test in acetone; assay type: physicochemical; conditions: 13 g AZDN in 100 ml acetone, room temperature, 100 rpm, visual
Protocol: A granule dissolution test is carried out at room temperature. A glass Erlenmeyer flask fitted with a magnetic stirring bar is placed on a magnetic stirrer. With the stirring stopped, 13 g of AZDN are introduced into the Erlenmeyer flask. 100 ml of acetone are then introduced quickly and stirring is started (100 rpm). The time taken until, visually, undissolved AZDN crystals are no longer seen is recorded.
Commercial recrystallized AZDN (130-257-438 microns/dv 10-50-90), AZDN granules prepared and dried as obtained above, and the dry powdered AZDN used in Example 1 are compared.

[4] = physchem
Description: The aqueous phase is decanted and then analysed by gas chromatography in order to determine the binder content in g/L, corresponding to its solubility.
The aqueous phase is decanted and then analysed by gas chromatography to determine the concentration of organic binder.

[5] = water, 20 °C, thermodynamic from solid
[6] = 20 °C, water, thermodynamic from solid

Structure (SMILES): CC(C)(C#N)N=NC(C)(C)C#N [AZDN, 2,2′-azobis(isobutyronitrile)]
solubility at 6 h ([1]; diethyl carbonate): 85 mg/mL (≈ 518 mM) | solubility at 6 h ([1]; n-butyl acetate): 59 mg/mL (≈ 359 mM) | solubility at 6 h ([2]; isobutyl acetate): 59 mg/mL (≈ 359 mM) | solubility at 6 h ([2]; meta-xylene): 25 mg/mL (≈ 152 mM) | solubility at 6 h ([2]; methoxycyclopentane (CPME)): 30.5 mg/mL (≈ 186 mM) | solubility at 6 h ([2]; methyl isobutyl ketone): 75.5 mg/mL (≈ 460 mM) | solubility at 6 h ([2]; methyl pentyl ketone): 45 mg/mL (≈ 274 mM) | solubility at 6 h ([2]; toluene): 60 mg/mL (≈ 365 mM)

Structure (SMILES): CC(C)(C#N)N=NC(C)(C)C#N [Dry AZDN powder, 2,2′-azobis(isobutyronitrile)]
Dissolution time [3]: 15 s

Structure (SMILES): CC(C)(C#N)N=NC(C)(C)C#N [Recrystallized AZDN, 2,2′-azobis(isobutyronitrile), reference compound]
Dissolution time [3]: 35 s

Structure (SMILES): CCCCOC(C)=O [n-Butyl acetate]
solubility at 1 h [4, 6]: 7 mg/mL

Now from value to molecule:

solubility at 1 h [4, 5]: 7 mg/mL
Structure (SMILES): CC(=O)OCC(C)C [Isobutyl acetate]

solubility at 1 h [4, 5]: 12.5 mg/mL (≈ 125 mM)
Structure (SMILES): COC1CCCC1 [Methoxycyclopentane]

solubility at 1 h [4, 5]: 20 mg/mL (≈ 200 mM)
Structure (SMILES): CC(=O)CC(C)C [Methyl isobutyl ketone]

solubility at 1 h [4, 5]: 5 mg/mL (≈ 43.8 mM)
Structure (SMILES): CCCCCC(C)=O [Methyl pentyl ketone]

solubility at 1 h [4, 6]: < 0.5 mg/mL
Structure (SMILES): Cc1cccc(C)c1 [meta-Xylene]
